Results as given in publication PMC7268545, “Development of a QPatch-Automated Electrophysiology Assay for Identifying TMEM16A Small-Molecule Inhibitors” (Assay and Drug Development Technologies, 2020).
Where two headings read alike, the source gives them in different places.

Target: T1, human ANO1 channel (isoform acd) (Homo sapiens, UniProt Q5XXA6)
T1 construct: host or cells: HEK293T
T1 sequence (Q5XXA6 1-986): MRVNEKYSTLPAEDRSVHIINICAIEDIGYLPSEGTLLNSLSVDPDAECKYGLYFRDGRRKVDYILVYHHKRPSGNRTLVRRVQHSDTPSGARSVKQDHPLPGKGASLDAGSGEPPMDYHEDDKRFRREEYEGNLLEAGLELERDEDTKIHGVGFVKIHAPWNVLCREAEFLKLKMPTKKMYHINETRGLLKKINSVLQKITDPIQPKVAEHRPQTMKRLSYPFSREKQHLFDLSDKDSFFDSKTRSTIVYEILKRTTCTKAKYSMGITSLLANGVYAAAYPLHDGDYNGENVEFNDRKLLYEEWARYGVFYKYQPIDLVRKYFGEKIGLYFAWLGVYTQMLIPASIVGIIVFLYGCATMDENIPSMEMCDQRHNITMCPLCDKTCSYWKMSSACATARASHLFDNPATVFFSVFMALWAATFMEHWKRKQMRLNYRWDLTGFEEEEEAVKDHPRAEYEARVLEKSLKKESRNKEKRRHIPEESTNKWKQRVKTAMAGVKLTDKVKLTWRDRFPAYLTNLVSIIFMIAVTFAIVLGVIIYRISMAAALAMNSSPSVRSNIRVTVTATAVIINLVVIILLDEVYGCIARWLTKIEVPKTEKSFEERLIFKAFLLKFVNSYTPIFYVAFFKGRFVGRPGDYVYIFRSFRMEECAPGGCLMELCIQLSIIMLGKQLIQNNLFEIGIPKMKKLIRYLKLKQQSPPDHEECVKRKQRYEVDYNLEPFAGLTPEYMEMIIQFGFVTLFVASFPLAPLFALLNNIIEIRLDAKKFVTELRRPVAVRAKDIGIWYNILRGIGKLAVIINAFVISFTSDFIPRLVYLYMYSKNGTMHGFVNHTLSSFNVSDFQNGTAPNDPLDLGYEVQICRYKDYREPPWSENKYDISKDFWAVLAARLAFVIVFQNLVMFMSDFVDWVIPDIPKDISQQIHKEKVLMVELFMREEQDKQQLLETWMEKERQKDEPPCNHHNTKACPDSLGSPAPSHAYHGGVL
Test: QPatch-48 automated whole-cell electrophysiology, cumulative five-concentration single-addition protocol
Type: cell-based
Protocol: HEK293T cells stably expressing the human ANO1 channel (isoform acd) were obtained from Scottish Biomedical. Cells were cultured in Sigma Minimum Essential Media containing 10% heat-inactivated fetal bovine serum, 1% penicillin/streptomycin, 1% glutamine, and […] geneticin. Cells were maintained in a 37°C, 5% CO2 environment. Cells were passaged every 3 days after they had reached ∼70% confluency and were not allowed to reach a density greater than 1–2 × 10^5 cells/cm^2 during routine culture. When subculturing, cells were rinsed once with room temperature 1 × phosphate-buffered saline (PBS; Ca^2+/Mg^2+ free), lifted with TrypLE Express, resuspended in prewarmed growth media, and counted using a hemocytometer. Cells were then plated in T150 flasks at a density of 2.9 × 10^4 cells/cm^2 to be either used in the assay or subcultured 72 h later.
On the day of the experiment, cells plated at a density of 2.9 × 10^4 cells/cm^2 72 h prior should be ∼70%–80% confluent. After cells were rinsed with prewarmed 1 × PBS (Ca^2+/Mg^2+ free), 3 mL of room temperature Detachin solution (Genlantis) was added to the flask and tilted gently two to three times to cover all the cells. Approximately 2 mL of Detachin was aspirated from the flask, leaving 1 mL on the cells, and then placed in the 37°C incubator for 5 min. Once cells had rounded up, the cells were dislodged by tapping the flask gently. The cells were then resuspended in 5 mL of warm serum-free media (EX-CELL ACF CHO Medium; Sigma; supplemented with 4 mM L-glutamine and 10 mM HEPES). A glass Pasteur pipette with a rubber bulb was then used to gently dissociate the cells from one another. Detachin will often leave cells as doublets or clumps, conditions that will disrupt seal formation on the QPatch. The cells were triturated ∼30 times and then, still using the Pasteur pipette, transferred into the QPatch Cell Hotel. This ensures that cells detach from one another leaving a suspension of single cells. A QStirrer was added to the Cell Hotel and the cell suspension was immediately placed on the QPatch device. Cells were utilized within 15 min.
Compounds were reconstituted in dimethyl sulfoxide (DMSO; Sigma) as 10 mM stock solutions. An automated dilution machine set up the microtiter plate (MTP ) by making 1:5 dilutions from a starting concentration of 30 μM. The concentration of DMSO was equal for all concentrations tested. Each MTP contained one row of a negative control (DMSO) and a positive control (benzbromarone). A total of eight compounds were run at a time. All compounds tested were produced in-house.
Whole-cell patch-clamp experiments were performed on a QPatch-48-automated electrophysiology platform (Sophion Biosciences) using the 48-channel, single-hole QPlate (resistance 2.0 ± 0.4 MΩ). The external buffer (in mM) was 140 NaCl, 4 KCl, 2 CaCl2, 1 MgCl2, 10 HEPES, 10 glucose, pH 7.4 (osmolarity = 300), and the internal buffer (in mM) was 110 CsCl, 20 TEA-Cl, 5.374 CaCl2, 1.75 MgCl2, 10 EGTA, 10 HEPES, 4 Na2ATP, pH 7.2 (osmolarity = 310). Cell positioning was set to a 5-s wait time with a positioning pressure of −60 mbar and a positioning time-out of 60 s. Resistance was set to increase 750% to ensure the success of positioning. To obtain a seal, pressure was increased to −70 mbar with an allowed pressure of −130 to −20 mbar and a holding pressure of −20 mbar. The holding potential was set to −70 mV and a 240-s time-out was set. The minimum seal resistance was set to 0.02 GΩ. To go whole cell, five 1-s suction pulses were applied starting at −180 mbar and increasing with −40 mbar increments with a pulse period of 10 s. Suction ramp and voltage zap protocols were kept standard, according to the default HEK cell settings. […] The suction ramp order of use was set to 2 with a ramp amplitude of −450 mbar and a ramp slope of 100 ms/mbar.
Once established in whole-cell configuration, cells are clamped to a holding potential (Vhold) of 0 mV.

[1] = half plate (24-well format), cumulative single-addition, n = 5, read-out: average IC50 (mean ± SD)
[2] = independent experiment 3, read-out: IC50s for independent experiments 3
[3] = independent experiment 4, read-out: IC50s for independent experiments 4
[4] = independent experiment 5, read-out: IC50s for independent experiments 5

| Structure (SMILES) | IC50 (IC50s for independent experiments 1, independent experiment 1, block at +100 mV, 250 nM internal free-calcium) [µM] | IC50 (IC50s for independent experiments 2, independent experiment 2) [µM] | IC50 (full 48-well plate format (with rundown), n = 1, read-out: IC50, full 48-well plate format) [µM] | IC50 [1] [µM] | IC50 [2] [µM] | IC50 [3] [µM] | IC50 [4] [µM] | IC50 (QPatch, 1-min incubations, read-out: concentration inhibiting 50% of channel current) [µM] | IC50 (independent experiment 1, block at +100 mV, 250 nM internal free-calcium, read-out: IC50s for independent experiments 1) [µM] | IC50 (independent experiment 2, read-out: IC50s for independent experiments 2) [µM] |
| --- | --- | --- | --- | --- | --- | --- | --- | --- | --- | --- |
| CCc1oc2ccccc2c1C(=O)c1cc(Br)c(O)c(Br)c1 [Benzbromarone] | 3.45 | 1.51 | 0.73 | 2.54 ± 0.94 | 1.31 | 2.3 | 3.18 |  |  |  |
| O=C(Nc1ccc([N+](=O)[O-])cc1Cl)c1cc(Cl)ccc1O [Niclosamide] |  |  |  | 1.6 ± 0.39 | 1.05 | 2.09 | 1.81 | ~1 | 1.62 | 1.43 |
